Among the data in patent US8367658B2, “Pyrazin-2-yl-pyridin-2-yl-amine and pyrazin-2-yl-pyrimidin-4-yl-amine compounds and their use” (Cancer Research Technology Limited, priority 2007, dated 2013) are IC50 values, retold here.

One may read the IC50 as the midpoint of a concentration-inhibition curve.

The assay has as its target T1, CHK1 (Homo sapiens, UniProt O14757).
T1 sequence (O14757 1-476): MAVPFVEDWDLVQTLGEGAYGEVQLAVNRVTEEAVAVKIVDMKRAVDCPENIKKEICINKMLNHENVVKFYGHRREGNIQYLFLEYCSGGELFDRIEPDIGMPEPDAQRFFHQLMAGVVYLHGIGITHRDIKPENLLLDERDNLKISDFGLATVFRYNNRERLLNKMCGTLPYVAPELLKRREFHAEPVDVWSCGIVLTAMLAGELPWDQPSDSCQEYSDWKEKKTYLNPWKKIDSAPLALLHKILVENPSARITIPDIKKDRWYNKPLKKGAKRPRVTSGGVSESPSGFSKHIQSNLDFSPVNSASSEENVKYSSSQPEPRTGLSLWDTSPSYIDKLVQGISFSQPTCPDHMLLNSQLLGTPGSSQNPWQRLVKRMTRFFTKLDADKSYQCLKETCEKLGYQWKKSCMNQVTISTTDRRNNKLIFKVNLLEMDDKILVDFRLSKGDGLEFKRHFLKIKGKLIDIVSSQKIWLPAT
Briefly: CHK1 kinase function inhibition assay (DELFIA, phosphorylation of a CDC25C peptide). It is filed as biochemical. Conditions: CHK1 1 nM, ATP 30 μM, 30 minutes at room temperature. As for the experimental part:
Measurement of Inhibition of CHK1 Kinase Function
CHK1 kinase function was measured in a DELFIA® assay in order to monitor phosphorylation of a CDC25C peptide using a specific phospho antibody.
The reaction mixture was incubated for 30 minutes at room temperature and then stopped by the addition of buffer (125 μL) containing 40 mM EDTA, 0.05% Tween 20, 0.1% BSA in TBS (10× concentrate, Sigma). An aliquot (100 μL) of the stopped reaction mixture was transferred to a black neutravidin-coated plate (Perbio) and incubated for 1 hour on a shaker (Titertek, Flow Laboratories) at room temperature. […] The plates were washed a further four times with wash buffer before the addition of enhancement solution (100 μL/well, PerkinElmer Life Sciences).

The compound `CN(C)CC(=O)Nc1cnc(Nc2cnc(C#N)cn2)cc1N[C@@H]1CCCNC1` [Compound Y-043, (R)—N-(6-(5-Cyanopyrazin-2-ylamino)-4-(piperidin-3-ylamino)pyridin-3-yl)-2-(dimethylamino)acetamide] displayed an IC50 of 0.1 to 1 µM.
The compound `CN(C)CC(=O)Nc1cnc(Nc2cnc(C#N)cn2)cc1NCC1CCCNC1` (centres unmarked) [Compound Y-044, N-(6-(5-Cyanopyrazin-2-ylamino)-4-(piperidin-3-ylmethylamino)pyridin-3-yl)-2-(dimethylamino)acetamide] registered an IC50 of 0.1 to 1 µM.
Regarding `N#Cc1cnc(Nc2cc(NC3CCCCC3)c(N)cn2)cn1` [Compound Y-045, 5-(5-Amino-4-(cyclohexylamino)pyridin-2-ylamino)pyrazine-2-carbonitrile], the IC50 lay in the range of 1 to 10 µM.
`CN(C)CC(=O)Nc1cnc(Nc2cnc(C#N)cn2)cc1N[C@H]1CCCNC1` [Compound Y-046, (S)—N-(6-(5-Cyanopyrazin-2-ylamino)-4-(piperidin-3-ylamino)pyridin-3-yl)-2-(dimethylamino)acetamide] returned an IC50 of 1 to 10 µM.
As for `N#Cc1cnc(Nc2cc(NC[C@H]3CCCNC3)c(N)cn2)cn1` [Compound Y-047, (S)-5-(5-Amino-4-(piperidin-3-ylmethylamino)pyridin-2-ylamino)pyrazine-2-carbonitrile], the figure is ≤ 0.1 µM; as for `N#Cc1cnc(Nc2cc(NC[C@@H]3CCCNC3)c(N)cn2)cn1` [Compound Y-048, (R)-5-(5-Amino-4-(piperidin-3-ylmethylamino)pyridin-2-ylamino)pyrazine-2-carbonitrile], ≤ 0.1 µM.
As for `N#Cc1cnc(Nc2cc(NCCC(N)c3ccccc3)c(N)cn2)cn1` (centres unmarked) [Compound Y-050, 5-(5-Amino-4-(3-amino-3-phenylpropylamino)pyridin-2-ylamino)pyrazine-2-carbonitrile], the figure is 1 to 10 µM; as for `N#Cc1cnc(Nc2cc(NCC3CCCCN3)c(N)cn2)cn1` (centres unmarked) [Compound Y-051, 5-(5-Amino-4-(piperidin-2-ylmethylamino)pyridin-2-ylamino)pyrazine-2-carbonitrile], 1 to 10 µM.
Under `N#Cc1cnc(Nc2cc(NCCC[C@H](N)C(=O)Nc3ccccc3)c(N)cn2)cn1` [Compound Y-052, (S)-2-Amino-5-(5-amino-2-(5-cyanopyrazin-2-ylamino)pyridin-4-ylamino)-N-phenylpentanamide] stands 1 to 10 µM.
For the compound `N#Cc1cnc(Nc2cc(NCC3CCCNC3)c(NC(=O)CCC3CCNCC3)cn2)cn1` (centres unmarked) [Compound Y-053, N-(6-(5-Cyanopyrazin-2-ylamino)-4-(piperidin-3-ylmethylamino)pyridin-3-yl)-3-(piperidin-4-yl)propanamide], the IC50 is ≤ 0.1 µM.
Compound `Cc1ncsc1CCC(=O)Nc1cnc(Nc2cnc(C#N)cn2)cc1NCC1CCCNC1` (centres unmarked) [Compound Y-054, N-(6-(5-Cyanopyrazin-2-ylamino)-4-(piperidin-3-ylmethylamino)pyridin-3-yl)-3-(4-methylthiazol-5-yl)propanamide] registered an IC50 of 1 to 10 µM.
As for `N#Cc1cnc(Nc2cc(NCC3CCCNC3)c(NC(=O)CCN3CCOCC3)cn2)cn1` (centres unmarked) [Compound Y-055, N-(6-(5-Cyanopyrazin-2-ylamino)-4-(piperidin-3-ylmethylamino)pyridin-3-yl)-3-morpholinopropanamide], the IC50 was 0.1 to 1 µM.
With `N#Cc1cnc(Nc2cc(NCC3CCCNC3)c(-n3cccc3)cn2)cn1` (centres unmarked) [Compound Y-056, 5-(4-(Piperidin-3-ylmethylamino)-5-(1H-pyrrol-1-yl)pyridin-2-ylamino)pyrazine-2-carbonitrile], the IC50 was ≤ 0.1 µM.
Under `N#Cc1cnc(Nc2cc(N[C@@H]3CCCNC3)c(-n3cccc3)cn2)cn1` [Compound Y-057, (R)-5-(4-(Piperidin-3-ylamino)-5-(1H-pyrrol-1-yl)pyridin-2-ylamino)pyrazine-2-carbonitrile] stands 0.1 to 1 µM.
As for `CN1CCC(Nc2cc(Nc3cnc(C#N)cn3)ncc2-n2cccc2)CC1` [Compound Y-058, 5-(4-(1-Methylpiperidin-4-ylamino)-5-(1H-pyrrol-1-yl)pyridin-2-ylamino)pyrazine-2-carbonitrile], the figure is ≤ 0.1 µM.
Under `N#Cc1cnc(Nc2cc(NCC3CCCNC3)c(N3CCCC3)cn2)cn1` (centres unmarked) [Compound Y-059, 5-(4-(Piperidin-3-ylmethylamino)-5-(pyrrolidin-1-yl)pyridin-2-ylamino)pyrazine-2-carbonitrile] stands ≤ 0.1 µM; under `N#Cc1cnc(Nc2cc(NCC3CCCNC3)c(N3CC[C@H](O)C3)cn2)cn1` (stereo partly drawn) [Compound Y-060, 5-(5-((S)-3-Hydroxypyrrolidin-1-yl)-4-(piperidin-3-ylmethylamino)pyridin-2-ylamino)pyrazine-2-carbonitrile], ≤ 0.1 µM; under `N#Cc1cnc(Nc2cc(NCC3CCCNC3)c(-n3ccc(CN4CCOCC4)c3)cn2)cn1` (centres unmarked) [Compound Y-062, 5-(5-(3-(Morpholinomethyl)-1H-pyrrol-1-yl)-4-(piperidin-3-ylmethylamino)pyridin-2-ylamino)pyrazine-2-carbonitrile], ≤ 0.1 µM.
Turning to `N#Cc1cnc(Nc2cc(NCC3CCCNC3)c(-n3ccc(CO)c3)cn2)cn1` (centres unmarked) [Compound Y-063, 5-(5-(3-(Hydroxymethyl)-1H-pyrrol-1-yl)-4-(piperidin-3-ylmethylamino)pyridin-2-ylamino)pyrazine-2-carbonitrile], the IC50 is ≤ 0.1 µM.
For the compound `CCOC(=O)c1ccn(-c2cnc(Nc3cnc(C#N)cn3)cc2NCC2CCCNC2)c1` (centres unmarked) [Compound Y-064, Ethyl 1-(6-(5-cyanopyrazin-2-ylamino)-4-(piperidin-3-ylmethylamino)pyridin-3-yl)-1H-pyrrole-3-carboxylate], the IC50 is ≤ 0.1 µM.
For the compound `N#Cc1cnc(Nc2cc(NCC3CCCNC3)c(-n3ccc(C(=O)O)c3)cn2)cn1` (centres unmarked) [Compound Y-065, 1-(6-(5-Cyanopyrazin-2-ylamino)-4-(piperidin-3-ylmethylamino)pyridin-3-yl)-1H-pyrrole-3-carboxylic acid], the IC50 lay within 0.1 to 1 µM.
With `N#Cc1cnc(Nc2cc(NCC3CCCNC3)c(-n3ccc(C(=O)NCCO)c3)cn2)cn1` (centres unmarked) [Compound Y-066, 1-(6-(5-Cyanopyrazin-2-ylamino)-4-(piperidin-3-ylmethylamino)pyridin-3-yl)-N-(2-hydroxyethyl)-1H-pyrrole-3-carboxamide], the IC50 fell in the range of 0.1 to 1 µM.
Under `N#Cc1cnc(Nc2cc(NCC3CCCNC3)c(-n3ccc(C(=O)NCCCO)c3)cn2)cn1` (centres unmarked) [Compound Y-067, 1-(6-(5-Cyanopyrazin-2-ylamino)-4-(piperidin-3-ylmethylamino)pyridin-3-yl)-N-(3-hydroxypropyl)-1H-pyrrole-3-carboxamide] stands ≤ 0.1 µM.
Take `N#Cc1cnc(Nc2cc(OCC3CCOC3)c(NC(=O)CCC3CCNCC3)cn2)cn1` (centres unmarked) [Compound Y-068, N-(6-(5-Cyanopyrazin-2-ylamino)-4-((tetrahydrofuran-3-yl)methoxy)pyridin-3-yl)-3-(piperidin-4-yl)propanamide]: the IC50 fell in the range of 1 to 10 µM.
Compound `N#Cc1cnc(Nc2cc(OCC3CCOCC3)c(NC(=O)CCC3CCNCC3)cn2)cn1` [Compound Y-069, N-(6-(5-Cyanopyrazin-2-ylamino)-4-((tetrahydro-2H-pyran-4-yl)methoxy)pyridin-3-yl)-3-(piperidin-4-yl)propanamide] had an IC50 of 1 to 10 µM.
Under `COC(=O)c1cnc(Nc2cnc(C#N)cn2)cc1N(C)C1CCN(C)CC1` [Compound Y-070, Methyl 6-(5-cyanopyrazin-2-ylamino)-4-(methyl(1-methylpiperidin-4-yl)amino)nicotinate] stands ≤ 0.1 µM; under `COC(=O)c1cnc(Nc2cnc(C#N)cn2)cc1NC1CC2CCCC(C1)N2C` (centres unmarked) [Compound Y-071, Methyl 6-(5-cyanopyrazin-2-ylamino)-4-(9-methyl-9-azabicyclo[3.3.1]-nonan-3-ylamino)nicotinate], 0.1 to 1 µM.
Turning to `COC(=O)c1cnc(Nc2cnc(C#N)cn2)cc1NCC1CCCCN1` (centres unmarked) [Compound Y-073, Methyl 6-(5-cyanopyrazin-2-ylamino)-4-(piperidin-2-ylmethylamino)-nicotinate], the IC50 was ≤ 0.1 µM.
As for `COC(=O)c1cnc(Nc2cnc(C#N)cn2)cc1NC1CCCNCC1` (centres unmarked) [Compound Y-076, Methyl 4-(azepan-4-ylamino)-6-(5-cyanopyrazin-2-ylamino)nicotinate], the figure is ≤ 0.1 µM; as for `CCCN1CCC(Nc2cc(Nc3cnc(C#N)cn3)ncc2C(=O)OC)CC1` [Compound Y-077, Methyl 6-(5-cyanopyrazin-2-ylamino)-4-(1-propylpiperidin-4-ylamino)nicotinate], ≤ 0.1 µM.
With `COC(=O)c1cnc(Nc2cnc(C#N)cn2)cc1NC1CCNCC1` [Compound Y-078, Methyl 6-(5-cyanopyrazin-2-ylamino)-4-(piperidin-4-ylamino)nicotinate], the IC50 was ≤ 0.1 µM.
For `CCCN1C2CCC1CC(Nc1cc(Nc3cnc(C#N)cn3)ncc1C(=O)OC)C2` (centres unmarked) [Compound Y-079, Methyl 6-(5-cyanopyrazin-2-ylamino)-4-(8-propyl-8-azabicyclo[3.2.1]octan-3-ylamino)nicotinate], the IC50 is ≤ 0.1 µM.
